Measurements from ChEMBL document CHEMBL1131332, “(-)-6-Chloro-2-[(1-furo[2, 3-c]pyridin-5-ylethyl)thio]-4-pyrimidinamine, PNU-142721, a new broad spectrum HIV-1 non-nucleoside reverse transcriptase inhibitor” (J Med Chem, 1998).

Tests used:
[1] = system: Human immunodeficiency virus 1; assay: Inhibition of p24 production in NNRTI-resistant DLVR-MF (P236L) HIV-1 variant at concentration 0.01 um; assay type: functional
[2] = system: Human immunodeficiency virus 1; assay: In vitro antiviral activity against NNRTI-resistant L-697661R-IIIB (Y181C) HIV-1 variant; assay type: functional, organism-based; details: Human immunodeficiency virus 1, IIIB
[3] = target: Human immunodeficiency virus type 1 reverse transcriptase (Human immunodeficiency virus 1, UniProt Q72547, Y181C); assay: Inhibitory activity against Y181C mutant HIV-1 reverse transcriptase
[4] = target: Human immunodeficiency virus type 1 reverse transcriptase (Human immunodeficiency virus 1, UniProt Q72547, P236L); assay: Inhibitory activity against P236L mutant HIV-1 reverse transcriptase
[5] = target: Human immunodeficiency virus type 1 reverse transcriptase (Human immunodeficiency virus 1, UniProt Q72547); assay: Inhibitory activity against wild type HIV-1 reverse transcriptase (WT-RT)
[6] = system: Human immunodeficiency virus 1; assay: Inhibition of p24 production in NNRTI-resistant L-697661R-IIIB (Y181C) HIV-1 variant at concentration 3 um; assay type: functional
[7] = system: Human immunodeficiency virus 1; assay: In vitro antiviral activity against NNRTI-resistant DLVR-MF (P236L) HIV-1 variant; assay type: functional, organism-based; details: Human immunodeficiency virus 1, IIIB
[8] = Apparent terminal disposition half-life (t1/2 ) was evaluated in Spargue-Dawley rat when given peroral at dose 30 mg/kg; assay type: ADME, organism-based; parameters: dose 30 mg/kg, route oral; details: Sprague-Dawley, in vivo, po
[9] = Pharmacokinetic parameter (tmax ) was evaluated in Spargue-Dawley rat when given intravenously at dose 15 mg/kg; assay type: ADME, organism-based; parameters: dose 15 mg/kg, route intravenous; details: Sprague-Dawley, in vivo, iv
[10] = system: Human immunodeficiency virus 1; assay: In vitro antiviral activity against NNRTI-resistant DLVR-IIIB (L100I) HIV-1 variant; assay type: functional, organism-based; details: Human immunodeficiency virus 1, IIIB
[11] = system: Human immunodeficiency virus 1; assay: In vitro antiviral activity against NNRTI-resistant R88703R-IIIB (Y181C) HIV-1 variant; assay type: functional, organism-based; details: Human immunodeficiency virus 1, IIIB
[12] = Pharmacokinetic parameter (Cmax ) was evaluated in Spargue-Dawley rat when given intravenously at dose 15 mg/kg; assay type: ADME, organism-based; parameters: dose 15 mg/kg, route intravenous; details: Sprague-Dawley, in vivo, iv
[13] = Pharmacokinetic parameter (Absolute oral bioavailability) was evaluated in Spargue-Dawley rat when given peroral at dose 80 mg/kg; assay type: ADME, organism-based; details: Sprague-Dawley, in vivo
[14] = system: Human immunodeficiency virus 1; assay: In vitro antiviral activity against NNRTI-resistant IIIB (WT) HIV-1 variant; assay type: functional, organism-based; details: Human immunodeficiency virus 1, IIIB
[15] = target: Human immunodeficiency virus type 1 reverse transcriptase (Human immunodeficiency virus 1, UniProt Q72547, Y188H); assay: Inhibitory activity against Y188H mutant HIV-1 reverse transcriptase
[16] = Apparent terminal disposition half-life (t1/2 ) was evaluated in Spargue-Dawley rat when given intravenously at dose 15 mg/kg; assay type: ADME, organism-based; parameters: dose 15 mg/kg, route intravenous; details: Sprague-Dawley, in vivo, iv
[17] = Pharmacokinetic parameter (Vss ) was evaluated in Spargue-Dawley rat when given intravenously at dose 15 mg/kg; assay type: ADME, organism-based; parameters: dose 15 mg/kg, route intravenous; details: Sprague-Dawley, in vivo, iv, read-out: Vss
[18] = Pharmacokinetic parameter (Cmax ) was evaluated in Spargue-Dawley rat when given peroral at dose 30 mg/kg; assay type: ADME, organism-based; parameters: dose 30 mg/kg, route oral; details: Sprague-Dawley, in vivo, po
[19] = Pharmacokinetic parameter (Cmax ) was evaluated in Spargue-Dawley rat when given peroral at dose 80 mg/kg; assay type: ADME, organism-based; parameters: dose 80 mg/kg, route oral; details: Sprague-Dawley, in vivo, po
[20] = Pharmacokinetic parameter (CL/F) was evaluated in Spargue-Dawley rat when given peroral at dose 80 mg/kg; assay type: ADME, organism-based; parameters: dose 80 mg/kg, route oral; details: Sprague-Dawley, in vivo, po
[21] = Pharmacokinetic parameter (CL/F ) was evaluated in Spargue-Dawley rat when given peroral at dose 30 mg/kg; assay type: ADME, organism-based; parameters: dose 30 mg/kg, route oral; details: Sprague-Dawley, in vivo, po
[22] = Pharmacokinetic parameter (tmax ) was evaluated in Spargue-Dawley rat when given peroral at dose 30 mg/kg; assay type: ADME, organism-based; parameters: dose 30 mg/kg, route oral; details: Sprague-Dawley, in vivo, po
[23] = target: Human immunodeficiency virus type 1 reverse transcriptase (Human immunodeficiency virus 1, UniProt Q72547, L100I); assay: Inhibitory activity against L100I mutant HIV-1 reverse transcriptase
[24] = Pharmacokinetic parameter (Absolute oral bioavailability) was evaluated in Spargue-Dawley rat when given peroral at dose 30 mg/kg; assay type: ADME, organism-based; details: Sprague-Dawley, in vivo
[25] = target: Human immunodeficiency virus type 1 reverse transcriptase (Human immunodeficiency virus 1, UniProt Q72547, E233V); assay: Inhibitory activity against E233V mutant HIV-1 reverse transcriptase
[26] = Apparent terminal disposition half-life (t1/2) was evaluated in Spargue-Dawley rat when given peroral at dose 80 mg/kg; assay type: ADME, organism-based; parameters: dose 80 mg/kg, route oral; details: Sprague-Dawley, in vivo, po
[27] = Pharmacokinetic parameter (tmax) was evaluated in Spargue-Dawley rat when given peroral at dose 80 mg/kg; assay type: ADME, organism-based; parameters: dose 80 mg/kg, route oral; details: Sprague-Dawley, in vivo, po

SMILES	IC50 [2]	IC50 [3]	IC50 [4]	IC50 [5]	IC50 [7]	IC50 [10]	IC50 [11]	IC50 [14]	IC50 [15]	IC50 [23]	IC50 [25]	further results
C[C@@H](Sc1nc(N)cc(Cl)n1)c1cc2ccoc2cn1	> 3000 nM	> 50000 nM	25 nM	85 nM	> 10 nM	–	–	–	–	–	–	Inhibition [1]: 0%; Inhibition [6]: 0%
C[C@H](Sc1nc(N)cc(Cl)n1)c1cc2ccoc2cn1	1100 nM	179 nM	22 nM	20 nM	8 nM	70 nM	170 nM	1 nM	77 nM	39 nM	17 nM	half-life [8]: 0.78 h; Tmax [9]: 1.98 min; Cmax [12]: 123 µM; bioavailability [13]: 94%; half-life [16]: 0.7 h; Vd [17]: 0.55 L/kg; Cmax [18]: 52 µM; Cmax [19]: 103 µM; CL/F [20]: 7.1 mL/min/kg; CL/F [21]: 7.1 mL/min/kg; Tmax [22]: 1.4 h; bioavailability [24]: 94%; half-life [26]: 1.5 h; Tmax [27]: 3.8 h
CC(Sc1nc(N)cc(Cl)n1)c1cc2ccoc2cn1 (configuration not stated)	2400 nM	360 nM	22 nM	24 nM	10 nM	60 nM	170 nM	2 nM	55 nM	44 nM	44 nM	–
CC(=O)c1ccccc1NC(C(N)=O)c1c(Cl)cccc1Cl (configuration not stated)	> 10000 nM	–	–	–	80 nM	6500 nM	> 10000 nM	150 nM	–	–	–	–
CC(C)Nc1cccnc1N1CCN(C(=O)c2cc3cc(NS(C)(=O)=O)ccc3[nH]2)CC1 [DELAVIRDINE]	–	–	–	–	> 10000 nM	> 10000 nM	1000 nM	50 nM	–	–	–	–
CCc1cc(NCc2nc3c(Cl)ccc(Cl)c3o2)c(O)nc1C [L-697661]	> 10000 nM	–	–	–	430 nM	4000 nM	7700 nM	110 nM	–	–	–	–
